Test system: HPRT (hypoxanthine phosphoribosyltransferase) gene in A549-ACE2+ cells infected with SARS-COV-2
Assay: HPRT mutagenesis in SARS-COV-2 infected cells
Type: cell-based

CC(C)CC(=O)c1c(Nc2ccc(C(=O)O)cc2Cl)[nH]c2c(Cl)ccc([N+](=O)[O-])c2c1=O [Compound 1, 3-chloro-4-((8-chloro-3-(3-methylbutanoyl)-5-nitro-4-oxo-1,4-dihydroquinolin-2-yl)amino)benzoic acid]
SARS-COV-2-dependent HPRT mutagenesis: suppress

Source: US20250367185A1, “TRANSLESION SYNTHESIS POLYMERASE INHIBITORS AND USES THEREOF” (THE UNIVERSITY OF VERMONT AND STATE AGRICULTURAL COLLEGE, priority 2022, published 2025)
